Numbered stars: 1 amine (or outer) side, 2 acyl side, 3 side chain; on linkers, the order of the positions; unused ones are H or OH. Square brackets hold non-standard residues; d marks the D form. Peptide text beside a SMILES is read from it. * marks the point of attachment. Pro(4R-NH2) = N[C@H]1CN[C@H](C(=O)O)C1; dOrn(Me2) = CN(C)CCC[C@@H](N)C(=O)O; X2 = O=C([C@H]1CCCN([*:1])C1)[*:2]; dDap(Me2) = CN(C)C[C@@H](N)C(=O)O; Hyp = O=C(O)[C@@H]1C[C@@H](O)CN1; NHcycloheptyl = C1CCCC(N*)CC1; NMeL = CN[C@@H](CC(C)C)C(=O)O; Octanoyl = CCCCCCCC(=O)*; Api = NC1(C(=O)O)CCNCC1
What was measured:
[1] = tested on: human colon adenocarcinoma cells; conditions: 1 mM ANP, within 24 h; cited from earlier work
[2] = molecular target: T1, NPR-B (Homo sapiens, UniProt P20594); experiment: NPR-B induced production of cyclic GMP in human glaucoma trabecular meshwork cells (GTM-3); assay type: cell-based; conditions: group by EC50 and Emax (CNP = 100%); Table 4; read-out: Activity (group), NPR-B activation assayed with GTM-3 cells
T1 construct: a functional assay using endogenously NPR-B expressing GTM-3 cells; endogenous in cells; host or cells: GTM-3 (human glaucoma trabecular meshwork cells)
T1 sequence (P20594 23-1047): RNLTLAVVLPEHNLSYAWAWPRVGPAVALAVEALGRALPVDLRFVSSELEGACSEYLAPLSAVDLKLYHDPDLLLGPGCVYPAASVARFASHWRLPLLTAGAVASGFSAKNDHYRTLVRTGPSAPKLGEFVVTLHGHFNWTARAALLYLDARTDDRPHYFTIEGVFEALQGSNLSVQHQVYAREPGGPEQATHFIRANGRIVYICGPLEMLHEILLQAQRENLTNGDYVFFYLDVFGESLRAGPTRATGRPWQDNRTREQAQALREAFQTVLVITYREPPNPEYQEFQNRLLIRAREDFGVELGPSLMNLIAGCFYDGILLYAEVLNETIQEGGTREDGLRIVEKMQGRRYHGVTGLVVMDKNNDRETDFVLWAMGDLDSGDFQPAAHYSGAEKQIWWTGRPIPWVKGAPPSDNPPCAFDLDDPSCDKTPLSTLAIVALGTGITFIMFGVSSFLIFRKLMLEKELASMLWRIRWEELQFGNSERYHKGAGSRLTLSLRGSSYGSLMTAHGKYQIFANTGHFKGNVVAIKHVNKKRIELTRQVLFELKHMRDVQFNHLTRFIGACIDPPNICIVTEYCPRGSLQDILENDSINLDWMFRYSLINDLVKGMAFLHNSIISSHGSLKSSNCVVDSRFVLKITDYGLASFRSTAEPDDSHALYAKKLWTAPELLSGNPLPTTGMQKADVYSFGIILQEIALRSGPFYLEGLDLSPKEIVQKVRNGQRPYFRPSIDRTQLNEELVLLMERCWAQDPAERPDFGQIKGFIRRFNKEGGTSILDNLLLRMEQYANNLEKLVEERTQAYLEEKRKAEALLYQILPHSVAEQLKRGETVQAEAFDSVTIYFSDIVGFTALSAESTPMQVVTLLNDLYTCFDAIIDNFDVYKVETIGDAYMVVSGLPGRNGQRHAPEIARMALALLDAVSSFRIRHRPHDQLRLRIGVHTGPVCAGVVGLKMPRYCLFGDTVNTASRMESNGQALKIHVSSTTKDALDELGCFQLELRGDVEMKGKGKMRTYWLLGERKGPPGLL

[3] = tested on: rabbit eyes; experiment: Efficacy in the rabbit: intraocular pressure (IOP) after a single topical ocular drop; assay type: in vivo; conditions: dose 300 ug topical ocular, single 30 μL drop, up to 4 hr post dose, 1% as suspension (+) or solution (++) per mark on label
Method: A single 30 μL drop of a test item formulation was administered to rabbit eyes (n=8 to 10).
Intraocular pressure (IOP) was assessed in each eye at 0 hr, just prior to dosing, and again hourly for up to 4 hr post dose. The efficacy of a given formulation was determined based on the difference between the pretreatment TOP readings at 0 hr and the post treatment readings. A maximum percent reduction in IOP greater than 15% was noted by the “+” symbol. A maximum IOP reduction of less than 15% was assigned the “−” symbol.

Structure (SMILES)	EC50 [2] [nM]	decrease in cell number [1]	RIOP, maximum percent reduction in IOP [3]
CC[C@H](C)[C@@H]1NC(=O)[C@H](CCCNC(=N)N)NC(=O)[C@H](CC(=O)O)NC(=O)[C@H](CCSC)NC(=O)[C@H](CCCNC(=N)N)NC(=O)CNC(=O)CNC(=O)[C@H](Cc2ccccc2)NC(=O)[C@@H](NC(=O)[C@H](CO)NC(=O)[C@H](CO)NC(=O)[C@H](CCCNC(=N)N)NC(=O)[C@H](CCCNC(=N)N)NC(=O)[C@H](CC(C)C)NC(=O)[C@@H](N)CO)CSSC[C@@H](C(=O)N[C@@H](CC(N)=O)C(=O)N[C@@H](CO)C(=O)N[C@@H](Cc2ccccc2)C(=O)N[C@@H](CCCNC(=N)N)C(=O)N[C@@H](Cc2ccc(O)cc2)C(=O)O)NC(=O)CNC(=O)[C@H](CC(C)C)NC(=O)CNC(=O)[C@H](CO)NC(=O)[C@H](CCC(N)=O)NC(=O)[C@H](C)NC(=O)CNC1=O [ANP, atrial natriuretic peptide]		up to 97%	
CCCCCCCC(=O)N1CCC[C@H](C(=O)N[C@@H](Cc2ccccc2)C(=O)N[C@H](CN(C)C)C(=O)N[C@@H](CC(C)C)C(=O)N2C[C@H](O)C[C@H]2C(=O)N(C)[C@@H](CC(C)C)C(=O)N[C@@H](CC(=O)O)C(=O)N[C@@H](CCCNC(=N)N)C(=O)N[C@H](C(N)=O)[C@@H](C)CC)C1 [JAL-1287, Occ-Sni-Phe-dap(Me2)-Leu-Hyp-Nml-Asp-Arg-Ile-NH2] (Octanoyl-[X2]F[dDap(Me2)]L[Hyp][NMeL]DRI-NH2)	< 1000		+ (+ IOP reduction >15%)
CCCCCCCC(=O)N1CCC[C@H](C(=O)N[C@@H](Cc2ccccc2)C(=O)N[C@H](CCCN(C)C)C(=O)N[C@@H](CC(C)C)C(=O)N2C[C@H](O)C[C@H]2C(=O)N(C)[C@@H](CC(C)C)C(=O)N[C@@H](CC(=O)O)C(=O)N[C@@H](CCCNC(=N)N)C(=O)N[C@H](C(N)=O)[C@@H](C)CC)C1 [JAL-1289, Occ-Sni-Phe-orn(Me2)-Leu-Hyp-Nml-Asp-Arg-Ile-NH2] (Octanoyl-[X2]F[dOrn(Me2)]L[Hyp][NMeL]DRI-NH2)	< 1000		+ (+ IOP reduction >15%)
CCCCCCCC(=O)N1CCC[C@H](C(=O)N[C@@H](Cc2ccccc2)C(=O)N[C@H](CC(C)C)C(=O)N[C@@H](CC(C)C)C(=O)N2C[C@H](N)C[C@H]2C(=O)N(C)[C@@H](CC(C)C)C(=O)N[C@@H](CC(=O)O)C(=O)N[C@@H](CCCNC(=N)N)C(=O)N[C@H](C(N)=O)[C@@H](C)CC)C1 [JAL-1295, Occ-Sni-Phe-leu-Leu-Tap-Nml-Asp-Arg-Ile-NH2] (Octanoyl-[X2]F[dL]L[Pro(4R-NH2)][NMeL]DRI-NH2)	< 1000		+ (+ IOP reduction >15%)

Second part, led by results:

EC50 [2] [nM]	Structure (SMILES)	decrease in cell number [1]	RIOP, maximum percent reduction in IOP [3]
< 1000	CCCCCCCC(=O)N1CCC[C@H](C(=O)N[C@@H](Cc2ccccc2)C(=O)N[C@H](CN(C)C)C(=O)N[C@@H](CC(C)C)C(=O)N2C[C@H](N)C[C@H]2C(=O)N(C)[C@@H](CC(C)C)C(=O)N[C@@H](CC(=O)O)C(=O)N[C@@H](CCCNC(=N)N)C(=O)N[C@H](C(N)=O)[C@@H](C)CC)C1 [JAL-1325, Occ-Sni-Phe-dap(Me2)-Leu-Tap-Nml-Asp-Arg-Ile-NH2] (Octanoyl-[X2]F[dDap(Me2)]L[Pro(4R-NH2)][NMeL]DRI-NH2)		+ (+ IOP reduction >15%)
< 1000	CCCCCCCC(=O)N1CCC[C@H](C(=O)N[C@@H](Cc2ccccc2)C(=O)N[C@H](CC(C)C)C(=O)N[C@@H](CC(C)C)C(=O)N2C[C@H](O)C[C@H]2C(=O)N(C)[C@@H](CC(C)C)C(=O)N[C@@H](CC(=O)O)C(=O)N2CCC[C@H]2C(=O)NC2CCCCCC2)C1 [JAL-1512_02, Occ-Sni-Phe-leu-Leu-Hyp-Nml-Asp-Pro-Che] (Octanoyl-[X2]F[dL]L[Hyp][NMeL]DP-NHcycloheptyl)		+ (+ IOP reduction >15%)
< 1000	CCCCCCCC(=O)N1CCC[C@H](C(=O)N[C@@H](Cc2ccccc2)C(=O)NC2(C(=O)N[C@@H](CC(C)C)C(=O)N3C[C@H](O)C[C@H]3C(=O)N(C)[C@@H](CC(C)C)C(=O)N[C@@H](CC(=O)O)C(=O)N[C@@H](CCCNC(=N)N)C(=O)N[C@H](C(N)=O)[C@@H](C)CC)CCNCC2)C1 [JAL-1555, Occ-Sni-Phe-Apc-Leu-Hyp-Nml-Asp-Arg-Ile-NH2] (Octanoyl-[X2]F[Api]L[Hyp][NMeL]DRI-NH2)		+ (+ IOP reduction >15%)
< 1000	CCCCCCCC(=O)N1CCC[C@H](C(=O)N[C@@H](Cc2ccccc2)C(=O)N[C@H](CC(C)C)C(=O)N[C@@H](CC(C)C)C(=O)N2C[C@H](N)C[C@H]2C(=O)N(C)[C@@H](CC(C)C)C(=O)N[C@H](C(=O)N2CCC[C@H]2C(=O)NC2CCCCCC2)C(C)C)C1 [JAL-1654, Occ-Sni-Phe-leu-Leu-Tap-Nml-Val-Pro-Che] (Octanoyl-[X2]F[dL]L[Pro(4R-NH2)][NMeL]VP-NHcycloheptyl)		− (− IOP reduction <15%)
< 1000	CCCCCCCC(=O)N1CCC[C@H](C(=O)N[C@@H](Cc2ccccc2)C(=O)N[C@H](CC(C)C)C(=O)N[C@@H](CC(C)C)C(=O)N2C[C@H](N)C[C@H]2C(=O)N(C)[C@@H](CC(C)C)C(=O)N[C@H](C(=O)N[C@@H](CCCNC(=N)N)C(=O)NC2CCCCCC2)C(C)C)C1 [JAL-1729, Occ-Sni-Phe-leu-Leu-Tap-Nml-Val-Arg-Che] (Octanoyl-[X2]F[dL]L[Pro(4R-NH2)][NMeL]VR-NHcycloheptyl)		+ (+ IOP reduction >15%)
< 1000	CCCCCCCC(=O)N1CCC[C@H](C(=O)N[C@@H](Cc2ccccc2)C(=O)N[C@H](CC(C)C)C(=O)N[C@@H](CC(C)C)C(=O)N2C[C@H](O)C[C@H]2C(=O)N(C)[C@@H](CC(C)C)C(=O)N[C@H](C(=O)N[C@@H](CCCNC(=N)N)C(=O)NC2CCCCCC2)C(C)C)C1 [JAL-1730, Occ-Sni-Phe-leu-Leu-Hyp-Nml-Val-Arg-Che] (Octanoyl-[X2]F[dL]L[Hyp][NMeL]VR-NHcycloheptyl)		+ (+ IOP reduction >15%)

Source: patent US9822147B2, “Methods of treating ophthalmic diseases using NPR-B agonists” (priority 2009, dated 2017)
